Measured values taken from patent US7964616B2, “Compounds 679” (AstraZeneca AB, priority 2007, dated 2011).

Legend:
[1] = target: T1, P2X7 receptor (Homo sapiens, UniProt Q99572); assay: P2X7 assay (bbATP-induced ethidium bromide fluorescence in THP-1 cells); format: cell-based; settings: 10^-5M bbATP agonist, read-out: P2X7 pIC50 (converted)
T1 construct: 200 μl of a suspension of THP-1 cells; endogenous in cells; host or cells: THP-1 cells
T1 sequence (Q99572 1-595): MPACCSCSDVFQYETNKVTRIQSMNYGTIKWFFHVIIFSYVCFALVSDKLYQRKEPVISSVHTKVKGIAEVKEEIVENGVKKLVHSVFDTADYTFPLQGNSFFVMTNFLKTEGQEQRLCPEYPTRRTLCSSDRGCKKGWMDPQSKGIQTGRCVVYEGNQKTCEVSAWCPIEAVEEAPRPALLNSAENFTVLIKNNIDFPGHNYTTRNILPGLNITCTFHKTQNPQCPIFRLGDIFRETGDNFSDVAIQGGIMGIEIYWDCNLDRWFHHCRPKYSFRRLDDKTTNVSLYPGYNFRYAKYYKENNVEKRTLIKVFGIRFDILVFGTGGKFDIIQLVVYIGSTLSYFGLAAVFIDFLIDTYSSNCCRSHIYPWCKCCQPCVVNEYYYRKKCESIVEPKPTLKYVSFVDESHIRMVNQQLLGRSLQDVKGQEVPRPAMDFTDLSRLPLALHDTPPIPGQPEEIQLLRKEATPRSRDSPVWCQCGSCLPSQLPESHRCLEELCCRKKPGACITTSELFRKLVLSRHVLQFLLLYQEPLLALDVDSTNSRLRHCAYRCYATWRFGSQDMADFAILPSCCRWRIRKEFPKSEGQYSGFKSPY
Excerpt: Certain compounds such as benzoylbenzoyl adenosine triphosphate (bbATP) are known to be agonists of the P2X7 receptor, effecting the formation of pores in the plasma membrane (Drug Development Research (1996), 37(3), p. 126). Consequently, when the receptor is activated using bbATP in the presence of ethidium bromide (a fluorescent DNA probe), an increase in the fluorescence of intracellular DNA-bound ethidium bromide is observed. The increase in fluorescence can be used as a measure of P2X7 receptor activation and therefore to quantify the effect of a compound on the P2X7 receptor.
In this manner, each of the title compounds of the Examples was tested for antagonist activity at the P2X7 receptor. Thus, the test was performed in 96-well flat bottomed microtitre plates, the wells being filled with 250 μl of test solution comprising 200 μl of a suspension of THP-1 cells (2.5×10^6 cells/ml) containing 10^−4M ethidium bromide, 25 μl of a high potassium buffer solution containing 10^−5M bbATP, and 25 μl of the high potassium buffer solution containing concentrations of test compound typically from 30 μM-0.001 μM. The plate was covered with a plastics sheet and incubated at 37° C. for one hour. The plate was then read in a Perkin-Elmer fluorescent plate reader, excitation 520 nm, emission 595 nm, slit widths: Ex 15 nm, Em 20 nm. For the purposes of comparison, bbATP (a P2X7 receptor agonist) and pyridoxal 5-phosphate (a P2X7 receptor antagonist) were used separately in the test as controls. From the readings obtained, a pIC50 figure was calculated for each test compound, this figure being the negative logarithm of the concentration of test compound necessary to reduce the bbATP agonist activity by 50%.

[2] = target: T2, ion channel subunit encoded by the human ether-a-go-go-related gene (hERG) (Homo sapiens, UniProt Q12809); assay: hERG binding protocol (radioligand competition, HEK cell membranes expressing hERG); settings: for IC50: a 'less than' figure indicates <50% inhibition at the quoted concentration, the highest tested, read-out: hERG pIC50 (converted); for P2X7:hERG Ratio: ratio of P2X7:hERG affinity
T2 construct: expressed in transfected cells; host or cells: HEK (human embryonic kidney) cells, membrane preparation
Method: The hERG assay was performed according to the procedure described in WO2005/037052. The affinity (pIC50) of compounds for the ion channel subunit encoded by the human ether-a-go-go-related gene (hERG) gene was determined by competition binding of radioligand 3,7-Bis[2-(4-nitro[3,5-^3H]phenyl)ethyl]-3,7-diazabicyclo[3.3.1]nonane to HEK (human embryonic kidney) cell membranes expressing hERG, in a filter wash format.
Membranes were incubated for 3 hours at room temperature with serial dilutions of the test compounds, radioligand 3,7-Bis[2-(4-nitro[3,5-^3H]phenyl)ethyl]-3,7-diazabicyclo[3.3.1]nonane at 1 nM final concentration, and assay buffer (10 mM HEPES, 130 mM NaCl, 5 mM KCl, 1 mM EGTA, 0.8 mM MgCl2, pH 7.4). The assay was conducted in a final volume of 200 μL, in the presence of 1% (v/v) dimethyl sulphoxide. Non-specific binding was determined by measuring the binding of 3,7-Bis[2-(4-nitro[3,5-^3H]phenyl)ethyl]-3,7-diazabicyclo[3.3.1]nonane in the presence of 10 […]. During this incubation GF/B filter plates were immersed in coating solution 0.3% (v/v) Polyethylenimine and 0.2% (w/v) BSA). Following incubation assay plates were harvested onto precoated GF/B filter plates using a Tomtec harvester.
The pIC50, defined as the negative logarithm of the concentration of compound required for 50% reduction in 3,7-Bis[2-(4-nitro[3,5-^3H]phenyl)ethyl]-3,7-diazabicyclo[3.3.1]nonane binding, was determined. A ‘less than’ figure indicates <50% inhibition at the quoted concentration, this being the highest concentration tested.

[3] = Bioavailability - Rat PK; format: in vivo, male Sprague Dawley rats; settings: male, Sprague Dawley, plasma, po 5 mg/kg vs iv 3 mg/kg
Method: Pharmacokinetic parameters and concepts are used in DMPK to describe the fate of a compound in the body. The distribution and excretion of a compound are reflected in the plasma concentration-time profile. By appropriate dosing, sampling and analysis key parameters (clearance, volume, half-life, bioavailability etc.) can be determined.
Test compounds were typically dosed intravenously to the right lateral tail vein of male Sprague Dawley rats at a dose level of 3 mg/kg (1 ml/kg) in DMA:water (40:60 v/v). Rats were dosed orally at a dose level of 5 mg/kg (2 ml/kg) in 0.5% hydroxypropylmethylcellulose (HPMC, w/v)/0.1% Tween 80 (v/v) in water). […]
To determine the plasma levels of test compound, 50 μl of methanol was added to 50 μl of each of the test samples, whilst 40 μl of methanol was added to the 50 μl aliquots of control plasma containing 10 μl spikes of authentic standard used to create a calibration line and QCs. […] The resultant supernatants were analysed by HPLC-MSMS after an appropriate, selective and sensitive method had been created by optimizing both cone voltage and collision energy.
Pharmacokinetic parameters were derived from concentration-time using non-compartmental analysis in WinNonLin®. Bioavailability was calculated using the following equation F=AUCPO*DoseIV/AUCIV*DosePO.

[4] = tested on: primary rat hepatocytes; assay: In vitro phospholipidosis protocol; format: cell-based, Han Wistar rats
Method: Assessment of a compounds potential to induce phospholipidosis was determined by an in vitro fluorescent assay which reports the accumulation of phospholipids in primary rat hepatocytes. Hepatocytes were isolated from Han Wistar rats by a 2-stage collagenase digest method. The hepatocytes were then plated on collagen coated 96-well plates in William's E medium. The cells were left to adhere for 1 hour then the media was replaced with a solution of 250 μg·ml^−1 collagen in Hepatozyme cell culture medium.
Cells were then cultured for 48 hours with the medium being changed at 24 hours. At 48 hours post isolation the medium was changed to Hepatozyme supplemented with the fluorescent phospholipid N-(6-tetramethylrhodaminethiocarbamoyl)-1,2-dihexadecanoyl-sn-glycero-3-phosphoethanolamine (DHPE-TRITC) (5 μg·ml^−1). At this time, test compounds were added to the hepatocytes at a range of concentrations in a serial dilution with a final concentration of 0.4% dimethylsulfoxide (used as solvent for test compounds). […]
Images of the hepatocytes were then acquired using an automated microscope platform (GE In Cell Analyser 3000). […] The quantified accumulation observed with test compounds was then normalised to a range of 0, representing the accumulation observed in cells exposed to vehicle only, and 1, representing cells exposed to 10 μM amiodarone. […]

T2 sequence (Q12809 whole entry): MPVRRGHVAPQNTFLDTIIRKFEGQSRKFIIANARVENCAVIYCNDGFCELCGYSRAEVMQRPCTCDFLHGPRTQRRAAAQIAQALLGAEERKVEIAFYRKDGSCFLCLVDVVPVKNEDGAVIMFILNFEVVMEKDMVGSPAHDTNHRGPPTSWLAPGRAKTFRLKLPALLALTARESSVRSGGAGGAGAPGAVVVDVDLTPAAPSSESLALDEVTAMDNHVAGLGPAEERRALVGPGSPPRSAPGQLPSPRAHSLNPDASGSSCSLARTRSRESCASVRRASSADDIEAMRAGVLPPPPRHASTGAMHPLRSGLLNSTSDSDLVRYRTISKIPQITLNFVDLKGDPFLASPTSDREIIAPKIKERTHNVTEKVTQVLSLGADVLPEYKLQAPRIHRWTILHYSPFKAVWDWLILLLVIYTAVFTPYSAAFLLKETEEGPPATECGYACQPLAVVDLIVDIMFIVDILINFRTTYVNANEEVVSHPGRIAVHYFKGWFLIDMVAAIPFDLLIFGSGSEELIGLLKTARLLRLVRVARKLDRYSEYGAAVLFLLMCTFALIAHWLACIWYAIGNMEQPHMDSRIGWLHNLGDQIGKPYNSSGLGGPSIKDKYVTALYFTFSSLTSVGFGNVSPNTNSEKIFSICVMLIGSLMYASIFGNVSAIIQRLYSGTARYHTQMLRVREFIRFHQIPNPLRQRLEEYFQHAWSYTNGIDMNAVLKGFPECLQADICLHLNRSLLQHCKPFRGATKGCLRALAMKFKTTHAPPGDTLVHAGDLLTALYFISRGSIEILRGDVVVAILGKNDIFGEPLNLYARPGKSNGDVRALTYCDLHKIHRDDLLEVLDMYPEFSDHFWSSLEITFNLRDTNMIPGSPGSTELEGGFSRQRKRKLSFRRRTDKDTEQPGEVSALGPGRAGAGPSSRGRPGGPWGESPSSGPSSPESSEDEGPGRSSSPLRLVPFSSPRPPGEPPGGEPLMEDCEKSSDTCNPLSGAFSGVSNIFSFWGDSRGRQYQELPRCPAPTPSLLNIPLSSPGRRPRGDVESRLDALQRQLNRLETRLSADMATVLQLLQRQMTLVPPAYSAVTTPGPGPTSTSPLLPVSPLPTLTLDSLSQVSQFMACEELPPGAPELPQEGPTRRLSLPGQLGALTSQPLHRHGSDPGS

SMILES	IC50 [1] [nM]	melting point	bioavailability [3] [%]	IC50 [2] [nM]	P2X7:hERG Ratio [2]	minimum toxic concentration ([4]; lowest dose that caused >50% cell toxicity, primary rat hepatocytes) [µM]	phospholipid (DHPE-TRITC) accumulation ([4]; maximum test concentration of 250 uM, normalised 0 = vehicle, 1 = 10 μM amiodarone)
C[C@H]1CCC[C@@](O)(CNC(=O)c2c(Cl)ccc3nc(N4CC[C@H](O)C4)ccc23)C1 [Example 1, 6-Chloro-N-{[(1S,3S)-1-hydroxy-3-methylcyclohexyl]methyl}-2-[(3S)-3-hydroxypyrrolidin-1-yl]quinoline-5-carboxamide]	7.94	222 °C		> 100000	>10,000		
C[C@H]1CCC[C@@](O)(CNC(=O)c2c(Cl)ccc3nc(N4CC[C@@H](O)C4)ccc23)C1 [Example 2, 6-Chloro-N-{[(1S,3S)-1-hydroxy-3-methylcyclohexyl]methyl}-2-[(3R)-3-hydroxypyrrolidin-1-yl]quinoline-5-carboxamide]	7.94	222 to 223 °C	59	> 100000	>10,000	> 250	no measurable accumulation
C[C@H]1CCC[C@@](O)(CNC(=O)c2c(Cl)ccc3nc(N4CCC(O)CC4)ccc23)C1 [Example 3, 6-Chloro-N-{[(1S,3S)-1-hydroxy-3-methylcyclohexyl]methyl}-2-(4-hydroxypiperidin-1-yl)quinoline-5-carboxamide]	7.94	120 °C (dec.)		> 100000	>10,000		

Second part, led by results:

IC50 [1] [nM]	melting point	bioavailability [3] [%]	SMILES	IC50 [2] [nM]	P2X7:hERG Ratio [2]	minimum toxic concentration ([4]; lowest dose that caused >50% cell toxicity, primary rat hepatocytes) [µM]	phospholipid (DHPE-TRITC) accumulation ([4]; maximum test concentration of 250 uM, normalised 0 = vehicle, 1 = 10 μM amiodarone)
10			C[C@H]1CCC[C@@](O)(CNC(=O)c2c(Cl)ccc3nc(N4CCC(C)(O)C4)ccc23)C1 (single isomer, unassigned) [Example 4 - isomer 2]	> 100000	>10,000		
	195 to 200 °C (dec.)		C[C@H]1CCC[C@@](O)(CNC(=O)c2c(Cl)ccc3nc(N4CCC(C)(O)C4)ccc23)C1 (stereo partly drawn) [Example 4, 6-Chloro-N-{[(1S,3S)-1-hydroxy-3-methylcyclohexyl]methyl}-2-(3-hydroxy-3-methylpyrrolidin-1-yl)quinoline-5-carboxamide]				
